Assay results taken from patent US11154529B2, “Phosphaplatin liquid formulations” (Phosplatin Therapeutics Inc., priority 2016, dated 2021).

Test: Ready-to-use formulation stability at 2-8° C., 5 mg/mL (R,R)-pyrodach-2 in 10 mM Potassium Phosphate Buffer at pH 7.2, 10 mL vials
Assay type: physicochemical
Description: A scalable and commercially viable process for the manufacture of a ready-to-use formulation of (R,R)-pyrodach-2 in 10 mM buffer adjusted to a pH of 7.0-7.5 comprises the steps of: a) preparing a 10 mM aqueous solution of buffer; b) adding sufficient hydroxide base to effect neutralization of the added (R,R)-pyrodach-2 to reach a pH of about 7; c) adding (R,R)-pyrodach-2 and allowing it to dissolve; d) if necessary adding additional hydroxide to adjust the pH into a range of about 7.0-7.5; and e) filtering the solution under sterile conditions, filling the solution into glass vials, and covering it with a stopper and/or a cap. Stability data on two large batches of 5 mg/mL (R,R)-pyrodach-2 in 10 mM potassium phosphate buffer were generated. One such batch at pH=7.2 was evaluated at both 25° C./60% RH and refrigerated (2-8° C.) conditions, with data summarized in Table 4 and Table 5, respectively. […] Similar observations have been made for the ready-to-use liquid formulation at pH7.4, as illustrated in Table 6 and Table 7.
• Transfer 4564.6 mg±0.5 mg of potassium phosphate dibasic, trihydrate to a 2-L volumetric flask. • Fill flask to approximately 75% volume with water, swirl as needed to dissolve all solids. • Volumetrically transfer 32.0 mL of 1N KOH to flask. • Dilute flask to volume with water and mix well. • Record pH of final solution. This is the diluent. • Transfer 7653.1 mg±0.5 mg of (R,R)-pyrodach-2 to a compounding vessel. • Transfer 1500 mL of the diluent to the vessel and stir to dissolve solids. • Record pH of final solution. • Pass entire solution through a 0.22 μm sterile filter membrane into a sterile collection vessel. • Calculate (R,R)-pyrodach-2 solution concentration
To a […] glass beaker equipped with mechanical mixer was add 24645.5 g of sterile water for injection. With agitation 47.03 gm of dibasic potassium phosphate USP was added and the solids allowed to dissolve. To the stirred solution was added 253.8 gm of 1.00 N potassium hydroxide. Sterile water for injection USP (900.0 gm) was used as a rinse to facilitate both additions. With vigorous agitation, (R,R)-pyrodach-2 (201.87 gm) was slowly added and agitation continued until all of the solids dissolved. Sterile water for injection USP (900.0 gm) was used as a rinse to facilitate the addition. The pH was determined to be 6.7. A total of 85 mL of 1.00 N potassium hydroxide was added in 5.0 mL aliquots to adjust the pH to 7.3. The solution was sterile filtered through 0.22μ Millipore Millipack filter and aseptically filled, 10 ml top a vial in 10 mL in 10 cc Wheaton clear molded vails, stoppered with a 20 mm stopper and crimp seal capped.

SMILES: O=P1(O)OP(=O)(O)[O][Pt]2([NH][C@@H]3CCCC[C@H]3[NH]2)[O]1 (stereo partly drawn) [(R,R)-pyrodach-2, (R,R)-trans-1,2-cyclohexanediamine-(dihydrogenpyrophosphato)platinum(II)]
- (DACH) Pt-diaquo (~RRT 0.3) (1 Month): 0.17%
- (DACH) Pt-monoaquo (~RRT 0.7) (1 Month): 0.84%
- Assay (Potency) (1 Month): 97.7%
- PT-112 Dimer (~RRT 4.0) (1 Month): 0.21%
- RRT 0.56 (1 Month): 0.11%
- Total Related Substances (1 Month): 1%
- pH (1 Month): 7.2
- (DACH) Pt-diaquo (~RRT 0.3) (2 Month): 0.09%
- (DACH) Pt-monoaquo (~RRT 0.7) (2 Month): 0.91%
- Assay (Potency) (2 Month): 100.1%
- PT-112 Dimer (~RRT 4.0) (2 Month): 0.25%
- RRT 0.56 (2 Month): 0.10%
- RRT 0.68 (2 Month): 0.06%
- Total Related Substances (2 Month): 1%
- pH (2 Month): 7.2
- (DACH) Pt-diaquo (~RRT 0.3) (3 Month): 0.18%
- (DACH) Pt-monoaquo (~RRT 0.7) (3 Month): 0.82%
- Assay (Potency) (3 Month): 98.2%
- PT-112 Dimer (~RRT 4.0) (3 Month): 0.31%
- RRT 0.56 (3 Month): 0.12%
- RRT 0.68 (3 Month): 0.05%
- RRT 3.1-3.2 (3 Month): 0.08%
- Total Related Substances (3 Month): 2%
- pH (3 Month): 7.2
- (DACH) Pt-diaquo (~RRT 0.3) (4 Month): 0.13%
- (DACH) Pt-monoaquo (~RRT 0.7) (4 Month): 0.88%
- Assay (Potency) (4 Month): 98.6%
- PT-112 Dimer (~RRT 4.0) (4 Month): 0.27%
- RRT 0.50 (4 Month): 0.05%
- RRT 0.56 (4 Month): 0.13%
- RRT 3.1-3.2 (4 Month): 0.07%
- Total Related Substances (4 Month): 2%
- pH (4 Month): 7.3
- (DACH) Pt-diaquo (~RRT 0.3) (6 Month): 0.18%
- (DACH) Pt-monoaquo (~RRT 0.7) (6 Month): 0.91%
- Assay (Potency) (6 Month): 98.4%
- PT-112 Dimer (~RRT 4.0) (6 Month): 0.28%
- RRT 0.56 (6 Month): 0.12%
- RRT 0.68 (6 Month): 0.05%
- RRT 3.1-3.2 (6 Month): 0.10%
- Total Related Substances (6 Month): 2%
- pH (6 Month): 7.3
- Particulate Matter (Light Obscuration) (6 Month, first value): 150 particles per container
- Particulate Matter (Light Obscuration) (6 Month, second value): 8 particles particles per container
- (DACH) Pt-diaquo (~RRT 0.3) (9 Month): 0.14%
- (DACH) Pt-monoaquo (~RRT 0.7) (9 Month): 1.05%
- Assay (Potency) (9 Month): 97.8%
- PT-112 Dimer (~RRT 4.0) (9 Month): 0.29%
- RRT 0.56 (9 Month): 0.16%
- RRT 0.68 (9 Month): 0.06%
- RRT 3.1-3.2 (9 Month): 0.10%
- Total Related Substances (9 Month): 2%
- pH (9 Month): 7.2
- (DACH) Pt-diaquo (~RRT 0.3) (12 Month): 0.20%
- (DACH) Pt-monoaquo (~RRT 0.7) (12 Month): 1.02%
- Assay (Potency) (12 Month): 97.8%
- PT-112 Dimer (~RRT 4.0) (12 Month): 0.29%
- RRT 0.50 (12 Month): 0.06%
- RRT 0.56 (12 Month): 0.16%
- RRT 0.68 (12 Month): 0.10%
- RRT 3.1-3.2 (12 Month): 0.16%
- Total Related Substances (12 Month): 2%
- pH (12 Month): 7.2
- Particulate Matter (Light Obscuration) (12 Month, first value): 236 particles per container
- Particulate Matter (Light Obscuration) (12 Month, second value): 4 particles particles per container
- (DACH) Pt-diaquo (~RRT 0.3) (15 Month): 0.15%
- (DACH) Pt-monoaquo (~RRT 0.7) (15 Month): 0.92%
- Assay (Potency) (15 Month): 98.7%
- PT-112 Dimer (~RRT 4.0) (15 Month): 0.29%
- RRT 0.50 (15 Month): 0.07%
- RRT 0.56 (15 Month): 0.19%
- RRT 0.68 (15 Month): 0.06%
- RRT 3.1-3.2 (15 Month): 0.22%
- Total Related Substances (15 Month): 2%
- pH (15 Month): 7.2
- (DACH) Pt-diaquo (~RRT 0.3) (18 Month): 0.15%
- (DACH) Pt-monoaquo (~RRT 0.7) (18 Month): 0.93%
- Assay (Potency) (18 Month): 100.3%
- PT-112 Dimer (~RRT 4.0) (18 Month): 0.31%
- RRT 0.50 (18 Month): 0.07%
- RRT 0.56 (18 Month): 0.19%
- RRT 0.68 (18 Month): 0.07%
- RRT 3.1-3.2 (18 Month): 0.19%
- RRT 3.54 (18 Month): 0.05%
- Total Related Substances (18 Month): 2%
- pH (18 Month): 7.3
- (DACH) Pt-diaquo (~RRT 0.3) (24 Month): 0.17%
- (DACH) Pt-monoaquo (~RRT 0.7) (24 Month): 0.82%
- Assay (Potency) (24 Month): 97.1%
- PT-112 Dimer (~RRT 4.0) (24 Month): 0.31%
- RRT 0.46 (24 Month): 0.06%
- RRT 0.50 (24 Month): 0.22%
- RRT 0.56 (24 Month): 0.09%
- RRT 0.68 (24 Month): 0.05%
- RRT 3.1-3.2 (24 Month): 0.22%
- RRT 3.54 (24 Month): 0.11%
- Total Related Substances (24 Month): 2%
- pH (24 Month): 7.2
- Particulate Matter (Light Obscuration) (24 Month, first value): 41 particles per container
- Particulate Matter (Light Obscuration) (24 Month, second value): 12 particles per container
- (DACH) Pt-diaquo (~RRT 0.3) (30 Month): 0.14%
- (DACH) Pt-monoaquo (~RRT 0.7) (30 Month): 0.96%
- Assay (Potency) (30 Month): 98.2%
- PT-112 Dimer (~RRT 4.0) (30 Month): 0.33%
- RRT 0.50 (30 Month): 0.17%
- RRT 0.56 (30 Month): 0.19%
- RRT 0.68 (30 Month): 0.08%
- RRT 3.1-3.2 (30 Month): 0.31%
- RRT 3.54 (30 Month): 0.10%
- Total Related Substances (30 Month): 2%
- pH (30 Month): 7.2
- Particulate Matter (Light Obscuration) (30 Month, first value): 62 particles per container
- Particulate Matter (Light Obscuration) (30 Month, second value): 6 particles particles per container
- (DACH) Pt-diaquo (~RRT 0.3) (36 Month): 0.12%
- (DACH) Pt-monoaquo (~RRT 0.7) (36 Month): 1.16%
- Assay (Potency) (36 Month): 97.8%
- PT-112 Dimer (~RRT 4.0) (36 Month): 0.36%
- RRT 0.46 (36 Month): 0.07%
- RRT 0.50 (36 Month): 0.23%
- RRT 0.56 (36 Month): 0.11%
- RRT 0.68 (36 Month): 0.09%
- RRT 3.1-3.2 (36 Month): 0.30%
- RRT 3.54 (36 Month): 0.14%
- Total Related Substances (36 Month): 3%
- pH (36 Month): 7.2
- (DACH) Pt-diaquo (~RRT 0.3) (Initial): 0.16%
- (DACH) Pt-monoaquo (~RRT 0.7) (Initial): 0.98%
- Assay (Potency) (Initial): 99.8%
- PT-112 Dimer (~RRT 4.0) (Initial): 0.19%
- RRT 0.56 (Initial): 0.13%
- RRT 0.68 (Initial): 0.05%
- Total Related Substances (Initial): 2%
- pH (Initial): 7.2
- Particulate Matter (Light Obscuration) (Initial, first value): 219 particles per container
- Particulate Matter (Light Obscuration) (Initial, second value): 11 particles per container
